{"source": "patent US8455526B2", "about": "“Therapeutic use of imidazole-5-carboxylic acid derivatives” (priority 2007, dated 2013)", "key": {"[1]": {"test_system": "Spontaneous hypertensive rat (SHR)", "assay": "Blood pressure and heart period of SHR after four months of feeding", "type": "in vivo", "settings": "for HP: heart interphase; for DBP / SBP: recorded 4 h", "experimental": "(§1) Spontaneous hypertensive rat (SHR) was administered successively, then anesthetized by intraperitoneal injection with 5 mg/kg of diazepam and 50 mg/kg of hydrochloride chlorine ammonia ketone. Then it was supined and fixed on the mice plate. The blood pressure was measured by inserting self-made artery catheter from left femoral to low positioned abdominal aorta. Left femoral vein intubation was used in intravenous administration, and then gastric fistula intubation was used. The gastric tube, artery catheter and vein catheter were passed under skin of the back to export from the neck incision. After the surgery, the animal was recovered for 40-45 h in bright automatic switching animal room with constant temperature and humidity. The recovered animal was connected in the monitoring device for measuring the blood pressure of rat with conscious free activity, and was stabilized for 3-4 h. The artery catheter was connected with pressure transformer by the perfusion tee tube. Systolic pressure per pulse, diastolic blood pressure and interphase of heart moving were real-time recorded by a computer. The systolic blood pressure (SBP), diastolic blood pressure (DBP) and heart interphase (HP) were recorded successively for 4 h. Phenylephrine was injected in femoral vein after the recording of blood pressure. The arterial baroreflex sensitivity (BRS) was measured twice and mean value was taken. The animal was sacrificed by decapitating method after recording the hemodynamic parameters and measuring the BRS. The thoracic cavity and abdominal cavity of the rat were opened, and the heart, thoracic aorta and right kidney were took quickly into normal saline. The large blood vessels of the base of the heart were removed and the whole heart was weighed after the water was completely absorbed by filter paper. The left and right ventricles were isolated and weighed respectively after the water was completely absorbed by filter paper. The right kidney was weighed after the water was completely absorbed. Then, the fat tissue and connective tissue adhered on the thoracic aorta were removed. The aortic arch was cut from the distal branch of subclavian artery to obtain a segment of the thoracic aorta of 3 cm, and weighed after the water was completely absorbed by filter paper.\n(§2) After the rats were fed on four specs of rat feed for four months, the SBP, DBP and HP were real-time recorded for 4 h. The animal was sacrificed by decapitating method. The thoracic cavity and abdominal cavity of the rat were opened, and the heart, thoracic aorta and right kidney were took quickly into normal saline. The large blood vessels of the base of the heart were removed and the whole heart was weighed after the water was completely adsorbed by filter paper. The left and right ventricles were isolated and weighed respectively after the water was completely absorbed by filter paper. The right kidney was weighed after the water was completely absorbed. Then, the fat tissue and connective tissue adhered on the thoracic aorta were removed. The aortic arch was cut from the distal branch of subclavian artery to obtain a segment of the thoracic aorta of 3 cm, and weighed after the water was completely absorbed by filter paper. The indexes of general observation for terminal organ damages were analyzed."}, "Beagle dogs [2]": {"test_system": "Beagle dogs", "assay": "Safety of long-term administration to Beagle dogs", "type": "in vivo, Beagle dog", "experimental": "Half of them were male, and half were female. They were randomly divided into 4 groups according to weight, eight per group. Allisartan was administered by gavage for 13 weeks. There were three groups with dosages of 20, 100, 500 mg/kg/day respectively and a solvent control group."}, "healthy subjects": {"test_system": "healthy subjects", "assay": "Phase I clinical trial, single oral administration", "type": "in vivo, human", "experimental": "Voluntary healthy subjects were 19-45 year old. They entered into the clinical trial ward before the date of the trial, ate light diet at night then fasted for 10 h without inhibiting water overnight. Allisartan tablets were administered by oral administration. The subjects were fasted on next morning, with the dosages from low to high (20 mg, 50 mg, 90 mg, 150 mg, 250 mg, 400 mg). The next dosage can be taken only after the observation of the effect of the last dosage. […] Adverse reaction of subjects were observed and recorded strictly."}, "[3]": {"test_system": "Spontaneous hypertensive rat (SHR)", "assay": "Indexes of general observation for organ damages in SHR (heart, right kidney, aorta)", "type": "in vivo", "settings": "for AW/LH: aorta weight to length; for LVW/BW: left ventricle weight to body weight; for RKW/BW: right kidney weight to body weight; for VW/BW: ventricle weight to body weight", "experimental": "as §1\nEvaluation indexes: LVW/BW, RVW/BW and VW/BW are the ratios of the left ventricle weight, right ventricle weight, ventricle weight to the body weight, respectively. They reflect the degree of heart damage. A lower ratio means weak damage. RKW/BW is the ratio of right kidney weight to body weight, which reflects the degree of the renal damage. A […] ratio means weak damage. AW/LH (length) is the ratio of aorta weight to length, which reflects the degree of the aorta damage. A lower ratio means weak damage.\nas §2"}, "Beagle dogs [4]": {"test_system": "Beagle dogs", "assay": "in vivo", "settings": "dog, po, 2500 mg/kg", "experimental": "(§3) 2 Beagle dogs were about six-month old with the weight of 7 kg each, 1 male and 1 female. The dosage of Allisartan by single oral administration was 2500 mg/kg."}, "in vivo": {"assay": "in vivo", "settings": "both, beagle, dog, po", "experimental": "as §3"}, "SD rats": {"test_system": "SD rats", "assay": "Safety of long-term administration to rats", "settings": "gavage 26 weeks, up to 320 mg/kg/day, six weeks recovery", "method": "There were three groups with the dosages of 20, 80, 320 mg/kg/day Allisartan respectively and a solvent control group. There were 14 males and 14 females in each group. During the whole test period, the behavior, activity, appearance, sign and the like of rats were observed every day. The examinations of hematology, hemagglutination, blood biochemistry and pathology were done for rats on the 26th week after administration and at the end of six-week recovery after withdrawing the drugs."}, "[5]": {"settings": "reported in literatures; cited from earlier work"}, "[6]": {"settings": "7.5 mg/kg in feed for four months"}, "[7]": {"settings": "15 mg/kg in feed for four months"}, "[8]": {"settings": "30 mg/kg in feed for four months"}, "[9]": {"settings": "20-40 mg single oral (so in the source)"}}, "note": "“Also recorded” adds a separate entry of the source.", "data": [{"smiles": "CCCCc1nc(Cl)c(C(=O)OCOC(=O)OC(C)C)n1Cc1ccc(-c2ccccc2-c2nnn[nH]2)cc1", "note": "[Allisartan, 2-butyl-4-chloro-1-[2′-(1H-tetrazol-5-yl)1,1′-biphenyl-methyl]imidazole-5-carboxylic acid, 1-[(isopropoxycarbonyl)oxy]methyl Ester]", "values": [{"measurement": "HP", "setting": "[1]; [6]", "result": "176 ± 9.65", "unit": "ms"}, {"measurement": "DBP", "setting": "[1]; [6]", "result": "100 ± 5.98", "unit": "mmHg"}, {"measurement": "SBP", "setting": "[1]; [6]", "result": "141 ± 9.44", "unit": "mmHg"}, {"measurement": "HP", "setting": "[1]; [7]", "result": "179 ± 10.83", "unit": "ms"}, {"measurement": "DBP", "setting": "[1]; [7]", "result": "90 ± 5.74", "unit": "mmHg"}, {"measurement": "SBP", "setting": "[1]; [7]", "result": "132 ± 8.35", "unit": "mmHg"}, {"measurement": "HP", "setting": "[1]; [8]", "result": "184 ± 16.62", "unit": "ms"}, {"measurement": "DBP", "setting": "[1]; [8]", "result": "81 ± 6.20", "unit": "mmHg"}, {"measurement": "SBP", "setting": "[1]; [8]", "result": "121 ± 10.25", "unit": "mmHg"}, {"measurement": "histopathology examination, in general or under microscope", "setting": "Beagle dogs [2]; gavage 13 weeks", "result": "no drug correlated lesions"}, {"measurement": "sign, appearance, behavior, activity, shape of feces and feeding", "setting": "Beagle dogs [2]; gavage 13 weeks, 20, 100, 500 mg/kg/day", "result": "normal"}, {"measurement": "body weight, amount of eaten food, hematology, blood biochemical analysis and pathology", "setting": "Beagle dogs [2]; long-term administration, 500 mg/kg/day", "result": "normal"}, {"measurement": "adverse reaction", "setting": "healthy subjects; [9]", "result": "no adverse reaction and serious adverse reaction events"}, {"measurement": "safety of single oral administration", "setting": "healthy subjects; [9]", "result": "very safe"}, {"measurement": "adverse events", "setting": "healthy subjects; 20-400 mg single oral", "result": "no adverse events or serious adverse events"}, {"measurement": "safety of single oral administration", "setting": "healthy subjects; 20-400 mg single oral", "result": "very safe"}, {"measurement": "AW/LH", "setting": "[3]; 7.5 mg/kg, four months", "result": "10.52 ± 0.6", "unit": "mg/cm"}, {"measurement": "LVW/BW", "setting": "[3]; 7.5 mg/kg, four months", "result": "2.55 ± 0.15", "unit": "mg/g"}, {"measurement": "RKW/BW", "setting": "[3]; 7.5 mg/kg, four months", "result": "4.00 ± 0.3", "unit": "mg/g"}, {"measurement": "VW/BW", "setting": "[3]; 7.5 mg/kg, four months", "result": "3.20 ± 0.16", "unit": "mg/g"}, {"measurement": "AW/LH", "setting": "[3]; 15 mg/kg, four months", "result": "9.60 ± 0.81", "unit": "mg/cm"}, {"measurement": "LVW/BW", "setting": "[3]; 15 mg/kg, four months", "result": "2.51 ± 0.13", "unit": "mg/g"}, {"measurement": "RKW/BW", "setting": "[3]; 15 mg/kg, four months", "result": "4.24 ± 0.34", "unit": "mg/g"}, {"measurement": "VW/BW", "setting": "[3]; 15 mg/kg, four months", "result": "3.13 ± 0.13", "unit": "mg/g"}, {"measurement": "AW/LH", "setting": "[3]; 30 mg/kg, four months", "result": "9.26 ± 0.68", "unit": "mg/cm"}, {"measurement": "LVW/BW", "setting": "[3]; 30 mg/kg, four months", "result": "2.34 ± 0.16", "unit": "mg/g"}, {"measurement": "RKW/BW", "setting": "[3]; 30 mg/kg, four months", "result": "4.24 ± 0.13", "unit": "mg/g"}, {"measurement": "VW/BW", "setting": "[3]; 30 mg/kg, four months", "result": "3.01 ± 0.17", "unit": "mg/g"}, {"measurement": "effect against aorta thickening", "setting": "[3]; four months", "result": "good effect"}, {"measurement": "effect against renal cortex atrophy", "setting": "[3]; four months", "result": "good effect"}, {"measurement": "right kidney weight compared with negative control group", "setting": "[3]; four months", "result": "significantly higher"}, {"measurement": "unit aorta weight compared with negative control group", "setting": "[3]; four months", "result": "significantly lower"}, {"measurement": "ventricular weight compared with negative control group", "setting": "[3]; low, middle and high dosages", "result": "significantly lower"}, {"measurement": "effect on left ventricular hypertrophy of SHR", "setting": "[3]; low, middle and high dosages, four months", "result": "reversing effect"}, {"measurement": "feeding and feces", "setting": "Beagle dogs [4]", "result": "normal"}, {"measurement": "histopathology examination of heart, lung, liver, spleen, kidney", "setting": "Beagle dogs [4]", "result": "no drug correlated lesions"}, {"measurement": "MTD at 14 days", "setting": "in vivo", "result": "> 2500", "unit": "mg/kg"}, {"measurement": "weights, feeding, hematology, blood biochemistry and pathology", "setting": "SD rats", "result": "normal; also recorded: no abnormal"}]}, {"smiles": "CCCCc1nc(Cl)c(CO)n1Cc1ccc(-c2ccccc2-c2nn[nH]n2)cc1", "note": "[Losartan]", "values": [{"measurement": "maximum tolerated dosage", "setting": "[5]", "result": 100, "unit": "mg/day"}]}, {"smiles": "CCCc1nc(C(C)(C)O)c(C(=O)O)n1Cc1ccc(-c2ccccc2-c2nnn[nH]2)cc1", "note": "[Olmesartan]", "values": [{"measurement": "maximum tolerated dosage", "setting": "[5]", "result": 40, "unit": "mg/day"}]}, {"smiles": "CCCCC(=O)N(Cc1ccc(-c2ccccc2-c2nnn[nH]2)cc1)[C@H](C(=O)O)C(C)C", "note": "[Valsartan]", "values": [{"measurement": "maximum tolerated dosage", "setting": "[5]", "result": 320, "unit": "mg/day"}]}, {"smiles": "CCCCc1nc(Cl)c(CO)n1Cc1ccc(-c2ccccc2-c2nn[nH]n2)cc1", "note": "[losartan potassium, reference compound]", "values": [{"measurement": "HP", "setting": "[1]; [8]", "result": "187 ± 11.95", "unit": "ms"}, {"measurement": "DBP", "setting": "[1]; [8]", "result": "84 ± 9.56", "unit": "mmHg"}, {"measurement": "SBP", "setting": "[1]; [8]", "result": "124 ± 12.96", "unit": "mmHg"}, {"measurement": "AW/LH", "setting": "[3]; 30 mg/kg, four months", "result": "9.07 ± 0.65", "unit": "mg/cm"}, {"measurement": "RKW/BW", "setting": "[3]; 30 mg/kg, four months", "result": "4.00 ± 0.23", "unit": "mg/g"}, {"measurement": "VW/BW", "setting": "[3]; 30 mg/kg, four months", "result": "3.18 ± 0.29", "unit": "mg/g"}, {"measurement": "right kidney weight compared with negative control group", "setting": "[3]; four months", "result": "significantly higher"}, {"measurement": "unit aorta weight compared with negative control group", "setting": "[3]; four months", "result": "significantly lower"}]}]}
